Results published in patent US20210403435A1, “HERBICIDAL COMPOUNDS” (SYNGENTA CROP PROTECTION AG, priority 2018, published 2021).

Experiments:
Experiment in all cases: Post-emergence efficacy, glasshouse, evaluated after 13 days
Assay type in all cases: in vivo
[1] = system: Euphorbia heterophylla (EPHHL); settings: Euphorbia heterophylla, 312 h; post-emergence application, 500 g/Ha, evaluated after 13 days; read-out: Control of weed species EPHHL (100=total damage to plant; 0=no damage to plant)
Method in brief: (§1)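 Plants grown 14 days in pots of standard soil in a glasshouse (24/16 °C day/night, 14 h light, 65% humidity), then sprayed post-emergence with compound formulated in acetone and IF50 and diluted in 0.25% or 1% Empicol ESC70 + 1% ammonium sulphate. Damage scored after 13 days, 0–100 (100 = total damage).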

[2] = system: Echinochloa crus-galli (ECHCG); settings: Echinochloa crus-galli, 312 h; post-emergence application, 500 g/Ha, evaluated after 13 days; read-out: Control of weed species ECHCG (100=total damage to plant; 0=no damage to plant)
Method in brief: as §1

[3] = system: Chenopodium album (CHEAL); settings: Chenopodium album, 312 h; post-emergence application, 500 g/Ha, evaluated after 13 days; read-out: Control of weed species CHEAL (100=total damage to plant; 0=no damage to plant)
Method in brief: as §1

[4] = system: Ipomoea hederacea (IPOHE); settings: Ipomoea hederacea, 312 h; post-emergence application, 500 g/Ha, evaluated after 13 days; read-out: Control of weed species IPOHE (100=total damage to plant; 0=no damage to plant)
Method in brief: as §1

Setaria faberi (SETFA) = settings: Setaria faberi, 312 h; post-emergence application, 500 g/Ha, evaluated after 13 days; read-out: Control of weed species SETFA (100=total damage to plant; 0=no damage to plant)
Method in brief: as §1

Lolium perenne (LOLPE) = settings: Lolium perenne, 312 h; post-emergence application, 500 g/Ha, evaluated after 13 days; read-out: Control of weed species LOLPE (100=total damage to plant; 0=no damage to plant)
Method in brief: as §1

[5] = system: Amaranthus palmeri (AMAPA); settings: Amaranthus palmeri, 312 h; post-emergence application, 500 g/Ha, evaluated after 13 days; read-out: Control of weed species AMAPA (100=total damage to plant; 0=no damage to plant)
Method in brief: as §1

[6] = system: Digitaria sanguinalis (DIGSA); settings: Digitaria sanguinalis, 312 h; post-emergence application, 500 g/Ha, evaluated after 13 days; read-out: Control of weed species DIGSA (100=total damage to plant; 0=no damage to plant)
Method in brief: as §1

Eleusine indica (ELEIN) = settings: Eleusine indica, 312 h; post-emergence application, 500 g/Ha, evaluated after 13 days; read-out: Control of weed species ELEIN (100=total damage to plant; 0=no damage to plant)
Method in brief: as §1

Structure (SMILES)	pest or weed control at 500 g/ha [1]	pest or weed control at 500 g/ha [2]	pest or weed control at 500 g/ha [3]	pest or weed control at 500 g/ha [4]	pest or weed control at 500 g/ha (Setaria faberi (SETFA))	pest or weed control at 500 g/ha (Lolium perenne (LOLPE))	pest or weed control at 500 g/ha [5]	pest or weed control at 500 g/ha [6]	pest or weed control at 500 g/ha (Eleusine indica (ELEIN))
O=C(O)CC[n+]1ccc(C(=O)Nc2cnccn2)cn1 [Compound A124]	30%	60%	30%	20%	70%	10%	20%	70%	30%
C=CCNC(=O)c1cc[n+](CCCOS(=O)(=O)[O-])nc1 [Compound A125]	60%	70%	60%	50%	50%	60%	30%	60%	30%
O=C(NC1CC1)c1cc[n+](CCCOS(=O)(=O)[O-])nc1 [Compound A126]	60%	60%	60%	50%	70%	50%	10%	40%	40%
CC(O)CCNC(=O)c1cc[n+](CCC(=O)O)nc1 (stereo not drawn) [Compound A127]	70%	50%	80%	30%	100%	80%	100%	100%	100%
CC(O)CNC(=O)c1cc[n+](CCC(=O)O)nc1 (stereo not drawn) [Compound A128]	100%	40%	90%	30%	90%	80%	100%	100%	90%
CC(=O)CNC(=O)c1cc[n+](CCC(=O)O)nc1 [Compound A129]	80%	60%	100%	20%	100%	70%	100%	100%	90%
CC(=O)CCNC(=O)c1cc[n+](CCC(=O)O)nc1 [Compound A130]	20%	50%	90%	10%	100%	70%	100%	100%	70%
CC1(C)CC(NC(=O)c2cc[n+](CCC(=O)O)nc2)=NO1 [Compound A131]	90%	30%	10%	30%	30%	0%	30%	30%	20%
COCC(C)NC(=O)c1cc[n+](CCC(=O)O)nc1 (stereo not drawn) [Compound A132]	70%	90%	100%	40%	100%	90%	100%	100%	100%
CN1CCN(C(=O)c2cc[n+](CCC(=O)O)nc2)CC1 [Compound A133]	20%	60%	10%	10%	70%	0%	20%	90%	50%
CCC1(NC(=O)c2cc[n+](CCC(=O)O)nc2)CC1 [Compound A134]	40%	100%	90%	20%	60%	90%	100%	100%	90%
CN(CCS(C)(=O)=O)C(=O)c1cc[n+](CCC(=O)O)nc1 [Compound A135]	80%	60%	60%	30%	100%	70%	80%	90%	40%
CS(=O)(=O)CCNC(=O)c1cc[n+](CCNS(=O)(=O)[O-])nc1 [Compound A136]	60%	50%	100%	30%	30%	70%	0%	100%	80%
CC1(C)CC1NC(=O)c1cc[n+](CCC(=O)O)nc1 (stereo not drawn) [Compound A137]	10%	100%	90%	0%	70%	100%	100%	100%	100%
COCCNC(=O)c1cc[n+](CCCOS(=O)(=O)[O-])nc1 [Compound A138]	60%	30%	70%	60%	80%	60%	30%	70%	60%
COCCNC(=O)c1cc[n+](CCNS(=O)(=O)[O-])nc1 [Compound A139]	80%	70%	100%	40%	70%	20%	90%	90%	100%
C=CCNC(=O)c1cc[n+](CCNS(=O)(=O)[O-])nc1 [Compound A140]	90%	70%	100%	60%	90%	20%	100%	90%	100%
C#CCNC(=O)c1cc[n+](CCNS(=O)(=O)[O-])nc1 [Compound A141]	60%	40%	100%	70%	40%	70%	100%	70%	90%
O=C(O)CC[n+]1ccc(C(=O)NCCc2nccs2)cn1 [Compound A143]	50%	40%	90%	40%	80%	50%	100%	60%	100%
Cn1ncnc1CCNC(=O)c1cc[n+](CCC(=O)O)nc1 [Compound A144]	90%	60%	100%	50%	90%	60%	100%	80%	100%
